From US20050112198A1, “Bupropion formulation for sustained delivery” (priority 2003, published 2005)

What was measured:
[1] = In-house drug-excipient compatibility / storage stability of bupropion hydrochloride; format: physicochemical; conditions: for degradation of active drug in drug-excipient mixtures: 50° C./75% RH and 40° C./75% RH
Description: In order to study the compatibility of various excipients used in the proposed invention with bupropion hydrochloride, various drug-excipient mixtures were prepared. The each excipient amount relative to drug varied from 1:1 to 1:10. […] As predicted with the active drug, it has been observed during their analysis at various time intervals by liquid chromatography that most of the excipients studied are causing degradation of the active drug with a result of two distinct degradation peaks, in which all cellulose based excipients considered to be interacting uniquely with the pure drug compared to non-cellulose based excipients. […] The above changes were more pronounced in samples studied under open conditions compared to closed condition samples. […] Such degradation could be due to impurities like peroxide, heavy metals and bleaching agents present in such materials. Even though such impurities are present within acceptable limits, the moisture content carried in them should have acted as solvent to aggravate such reactions. […] The package component seems to play a vital role for stabilizing the dosage form: high-density polyethylene (HDPE) containers with additional thickness/weight are preferred apart from maintaining sufficient quantity of adsorbent added to the packaging system to minimize moisture and oxygen/odor levels.

[2] = crystalline solid; cited from earlier work

In the case of `CC(NC(C)(C)C)C(=O)c1cccc(Cl)c1.Cl` (racemic) [Bupropion hydrochloride, (±)-1-(3-chlorophenyl)-2-[(1,1-dimethylethyl)amino]-1-propanone hydrochloride], the “stability of the salt form alone” value ([1]; in-house studies, normal storage conditions, without excipients) is reported as “stable in normal storage conditions”, the “degradation of active drug in drug-excipient mixtures” value ([1]; mixtures with Kollidon VA64, Kollidon SR, methylcellulose, colloidal silicon dioxide, magnesium stearate, enteric coating materials) is reported as “minimum amount or no change” and the “degradation of active drug in drug-excipient mixtures” value ([1]; mixtures with hydroxypropyl cellulose, polyethylene oxide and sodium carboxymethyl cellulose, 1:1 to 1:10, liquid chromatography) is reported as “rapid degradation”. For the same molecule, the water solubility [2] was “water soluble”.
